# In the supplement of paper PMC11208160:
# Experiment: recombinant barcode read abundance after kanamycin selection (control-corrected) (log10(CPM+1)); higher = more efficient recombination; sequences stand for … in AGTGCAGAGAAAATCGGCCAGTTTTCTCTGCCTGCAGTCCGCATGCCGT…AGATTTATGCAGCGGACTGCCTTTCTCCCAAAGTGATAAACCGGACAGTATCATGGACCGGTTTTCCCGGTAATCCGTATTTGCAAGGTTGGTTTCACT; site = the 11-nt target
# Method in brief: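 The screen was pooled in E. coli and paired targets with IS621 bridge RNA target-binding loops. Recombination efficiency is taken from barcode counts per million at recombinant junctions, averaged and adjusted against the control. Values, in the form log10(CPM+1), come from duplicate plating on chloramphenicol/ampicillin LB agar or on chloramphenicol/ampicillin/kanamycin with 0.1 mM IPTG.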
# 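Note: IS621 recombinase and bridge RNA in Escherichia coli cells.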
row,Sequence,recombinant barcode read abundance (log10)
1,GTATATACTTGGGTTCTAACCTGTTGCCT (site GTGTATACTAG),0.241
2,GTATATACTTGGGTTCTAACCTGTTGCCT (site GTTTATACTAG),0.00506
3,GTATCAGCTTGGGTTCTAACCTGTTGCCT (site GTATCAACTAG),0.181
4,GTATCAGCTTGGGTTCTAACCTGTTGCCT (site GTATCACCTAG),0.226
5,GTATCAGCTTGGGTTCTAACCTGTTGCCT (site GTATCAGCTAG),1.25
6,GTATCAGCTTGGGTTCTAACCTGTTGCCT (site GTATCATCTAG),0.0176
7,GTATGAACTTGGGTTCTAACCTGTTGCCT (site GTATGAACTAG),1.44
8,GTATGAACTTGGGTTCTAACCTGTTGCCT (site GTATGACCTAG),0.121
9,GTATGAACTTGGGTTCTAACCTGTTGCCT (site GTATGAGCTAG),0.384
10,GTATGAACTTGGGTTCTAACCTGTTGCCT (site GTATGATCTAG),0.119
11,GTATGACCTTGGGTTCTAACCTGTTGCTT (site GTAGCACCTAA),0.0633
12,GTATGACCTTGGGTTCTAACCTGTTGCTT (site GTATGACCTAA),1.54
13,GTATGAGCTTGGGTTCTAACCTGTTGCTG (site ATTTGAGCTCA),0.288
14,GTATGAGCTTGGGTTCTAACCTGTTGCTG (site GTATGAGCTCA),1.51
15,GTATGATCTTGGGTTCTAACCTGTTGCAT (site GTATGATCTAT),0.807
16,GTATGATCTTGGGTTCTAACCTGTTGCAT (site GTATGTACTAT),0.106
17,GTATGATCTTGGGTTCTAACCTGTTGCCT (site GTATGAACTAG),0.026
18,GTATGATCTTGGGTTCTAACCTGTTGCCT (site GTATGACCTAG),0.0755
19,GTATGATCTTGGGTTCTAACCTGTTGCCT (site GTATGAGCTAG),0.742
20,GTATGATCTTGGGTTCTAACCTGTTGCCT (site GTATGATCTAG),1.45

row,Sequence,recombinant barcode read abundance (log10)
1,GTATGGACTTGGGTTCTAACCTGTTGCAA (site CATCAAGCTAG),0.138
2,GTATGGACTTGGGTTCTAACCTGTTGCAA (site GTATGGACTTT),1.32
3,GTATGTGCTTGGGTTCTAACCTGTTGCGG (site GTATGAGCTCC),0.689
4,GTATGTGCTTGGGTTCTAACCTGTTGCGG (site GTATGTGCTCC),2.84
5,GTATTTCCTTGGGTTCTAACCTGTTGCTT (site GTATCTCCTAA),0.0837
6,GTATTTCCTTGGGTTCTAACCTGTTGCTT (site GTATTTCCTAA),0.782
7,GTCAAGACTTGGGTTCTAACCTGTTGCCA (site GTCAAGACTCG),0.3
8,GTCAAGACTTGGGTTCTAACCTGTTGCCA (site GTCAAGACTTG),1.03
9,GTCACCTCTTGGGTTCTAACCTGTTGCTA (site GTAACCTCTGA),0.217
10,GTCACCTCTTGGGTTCTAACCTGTTGCTA (site GTCACCTCTTA),1.58
11,GTCACTACTTGGGTTCTAACCTGTTGCAT (site AAGGTACCTCC),0.139
12,GTCACTACTTGGGTTCTAACCTGTTGCAT (site GTCACTACTAT),0.381
13,GTCAGCTCTTGGGTTCTAACCTGTTGCTA (site GACCGCTCTTA),0.127
14,GTCAGCTCTTGGGTTCTAACCTGTTGCTA (site GTCAGCTCTTA),1.16
15,GTCATACCTTGGGTTCTAACCTGTTGCCT (site GTCATACCTAG),1.02
16,GTCATACCTTGGGTTCTAACCTGTTGCCT (site GTCCTACCTAG),0.0356
17,GTCATACCTTGGGTTCTAACCTGTTGCCT (site GTCGTACCTAG),0.111
18,GTCATACCTTGGGTTCTAACCTGTTGCCT (site GTCTTACCTAG),0.203
19,GTCATGCCTTGGGTTCTAACCTGTTGCCT (site GGCCTGCCTAG),0.0766
20,GTCATGCCTTGGGTTCTAACCTGTTGCCT (site GTCATGCCTAG),1.1

row,Sequence,recombinant barcode read abundance (log10)
1,GTCCACCCTTGGGTTCTAACCTGTTGCAG (site GTCCACCCTCT),1.86
2,GTCCACCCTTGGGTTCTAACCTGTTGCAG (site GTCCACTCTGT),0.01
3,GTCCACTCTTGGGTTCTAACCTGTTGCTT (site GTCCACTCTAA),1.46
4,GTCCACTCTTGGGTTCTAACCTGTTGCTT (site GTCCAGTCTAC),0
5,GTCCAGGCTTGGGTTCTAACCTGTTGCGG (site GACCAGTCTCC),0.421
6,GTCCAGGCTTGGGTTCTAACCTGTTGCGG (site GTCCAGGCTCC),0.924
7,GTCCCTCCTTGGGTTCTAACCTGTTGCCT (site GTCCCTCCTAA),0.187
8,GTCCCTCCTTGGGTTCTAACCTGTTGCCT (site GTCCCTCCTAC),0.116
9,GTCCCTCCTTGGGTTCTAACCTGTTGCCT (site GTCCCTCCTAG),0.709
10,GTCCCTCCTTGGGTTCTAACCTGTTGCCT (site GTCCCTCCTAT),0.586
11,GTCCGAACTTGGGTTCTAACCTGTTGCCA (site GTCCGAACTTG),0.428
12,GTCCGAACTTGGGTTCTAACCTGTTGCCA (site GTCGGAGCTTG),0.0199
13,GTCCGTCCTTGGGTTCTAACCTGTTGCCT (site GTCCGTCCTAA),0.119
14,GTCCGTCCTTGGGTTCTAACCTGTTGCCT (site GTCCGTCCTAC),0.0319
15,GTCCGTCCTTGGGTTCTAACCTGTTGCCT (site GTCCGTCCTAG),0.833
16,GTCCGTCCTTGGGTTCTAACCTGTTGCCT (site GTCCGTCCTAT),0.0563
17,GTCCGTCCTTGGGTTCTAACCTGTTGCGT (site GTCCGTCCTAA),0.139
18,GTCCGTCCTTGGGTTCTAACCTGTTGCGT (site GTCCGTCCTAC),1.69
19,GTCCGTCCTTGGGTTCTAACCTGTTGCGT (site GTCCGTCCTAG),0.09
